# Patent US20140050674A1, “Method for Improving Penetration or Long Term Adhesion of Compositions to Dental Tissues and Compositions Usable in Said Method” (University of Oulu, priority 2011, published 2014)
# Key:
# MDPC-23 cells [1] = test: Cell metabolism (SDH production, MTT assay); assay type: cell-based; settings: 24 h
# Protocol: (§1) Immortalized odontoblast-like MDPC-23 cell line, frequently used for the evaluation of cytotoxicity of dental materials, was used to analyse the effect of different DMSO concentrations on pulpal cell viability. The cell culturing and methodology followed that described by Aranha et al. (2011). Briefly, DMEM culture medium with different concentrations of DMSO (0.05, 0.1, 0.3, 0.5 and 1.0 mM) were placed in contact with MDPC-23 cells (5×10^4 cells/cm^2) for 24 h. Pure DMEM was used in the control group. Twelve replicates were prepared in each group, except for flow cytometry analysis (n=8). Viable cell number (Trypan Blue), cell metabolism (production of succinic dehydrogenase enzyme-SDH, MTT assay) and cell death by necrosis (flow cytometry) were evaluated as described before (Ribeiro et al. 2010, Aranha et al. 2011).
# [2] = tested on: gelatinases MMP-2 and MMP-9; test: Gelatin zymography; assay type: biochemical, human
# Protocol: Gelatin zymography was performed in 10% SDS-PAGE containing 1 mg/ml labelled gelatin in a usual fashion (Invitrogen, Carlsbad, Calif., USA) (O'Grady et al. 1984). After the electrophoresis, SDS was removed by 2.5% Triton X-100 to renature the gelatinases. Gels were then incubated overnight at 37° C. in 50 mM Tris-HCl buffer (5 mM CaCl2, 1 μM ZnCl2, 0.02% NaN3, pH 7.5) zymography incubation buffer with 0%, 0.1%, 2.5%, 5%, 10% or 20% of DMSO to observe the effect of DMSO concentration on the MMP activity. The degradation of gelatin was visualized under UV light. Gels were also stained with 0.5% Coomassie Blue R-250. The intensities of the bands were quantified by ScionImage software (Scion Corporation, Frederick, Mass., USA). The analysis was done as triplicates, and relative amounts against 0% DMSO were calculated.
# MDPC-23 cells [3] = test: Viable cell number (Trypan Blue); assay type: cell-based; settings: 24 h
# Protocol: as §1
# [4] = tested on: dentin collagenolytic enzymes; test: Hydroxyproline release from demineralized dentin beams; assay type: biochemical
# Protocol: Type I collagen contains about 10 mass % hydroxyproline (HYP), an amino acid almost non-existent in other proteins. Detection of HYP release form demineralized dentin beams was used to evaluate whether DMSO would be effective in inhibiting MMPs in dentin collagen matrix, using a method described in Carrilho et al. 2009. Seventy-six dentin beams (1 mm×1 mm×9 mm) were divided into four groups (n=19 per group) and demineralized. Each beam was individually incubated in a polypropylene tubes with 1 ml of medium containing 50 mmol/L HEPES, 5 mmol/L CaCl2 2H2O, 0.001 mmol/L ZnCl2, 150 mmol/L NaCl, and 3 mmol/L NaN3, pH 7.2, that ensures availability of Zn- and Ca-ions for MMP function. The control samples were incubated in a medium without DMSO: in two groups the beams were incubated with DMSO in medium with 0.001% and 0.01% concentrations. In one group, demineralized dentin beams were immersed in 5% DMSO for 15 minutes and then incubated in a medium without DMSO for the rest of the experiment. Tubes were incubated in a water-shaker bath at 37° C. for a week. Then the medium was completely removed and quantitated for HYP content according to the colorimetric absorbance method described by Jamall et al (1981). Fresh 1 mL of medium was replaced in each tube for additional three weeks of incubation, when the media was removed and analyzed for HYP content. HYP standards were prepared from a 1 mg/mL HYP stock solution in 50% isopropanol. The resulting amount of HYP (mg/mL) was used to estimate the percentage of solubilized (degraded) collagen assuming that 90% of the dry mass of demineralized dentin beams consisted of type I collagen and that 10 mass % of collagen is HYP (Carrilho et al. 2009).
# MDPC-23 cells [5] = test: Cell death by necrosis (flow cytometry); assay type: cell-based; settings: 24 h
# Protocol: as §1
# MMP-2 [6] = test: EnzChek Gelatinase/Collagenase Assay Kit; assay type: biochemical; settings: 4 to 5% DMSO; non-activated (no APMA) and activated (APMA) MMP-2
# Protocol: (§2) EnzChek Gelatinase/Collagenase Assay Kit (Molecular Probes, Eugene, Oreg., USA) was used to detect the effect of DMSO on the gelatinolytic activities of MMP-2 and -9 according to manufacturer's protocol. Briefly, 3 ng of MMP-2 (purified from cell culture media), 3 ng MMP-9 (purified from cell culture media), and 5 ng of recombinant MMP-9 (Chemicon) were diluted into the reaction buffer (50 mM Tris-HCl, 150 mM NaCl, 5 mM CaCl2, 0.2 mM NaN3, pH 7.6) and incubated with quenched fluorescein-conjugated gelatin (50 μg/ml) and 0%, 0.01%, 0.1%, 0.5%, 1%, 2%, 3%, 4% or 5% of DMSO in a black-walled 96 well microplate at RT in dark. Fluorescent intensity indicating the gelatinolysis was measured at multiple time points with Fluoromax2/Micromax fluorometer (ISA Jobin Yvon-Spex, Edison, N.J., USA). Analyses were performed as quadruplicates. The relative intensities were calculated against 0% of DMSO.
# MMP-2 [7] = target: T1, MMP-2 (Homo sapiens, UniProt P08253); test: EnzChek Gelatinase/Collagenase Assay Kit; assay type: biochemical; settings: 3% DMSO; APMA-activated MMP-2; 24 h incubation
# T1 construct: made in house
# T1 sequence (P08253 110-660): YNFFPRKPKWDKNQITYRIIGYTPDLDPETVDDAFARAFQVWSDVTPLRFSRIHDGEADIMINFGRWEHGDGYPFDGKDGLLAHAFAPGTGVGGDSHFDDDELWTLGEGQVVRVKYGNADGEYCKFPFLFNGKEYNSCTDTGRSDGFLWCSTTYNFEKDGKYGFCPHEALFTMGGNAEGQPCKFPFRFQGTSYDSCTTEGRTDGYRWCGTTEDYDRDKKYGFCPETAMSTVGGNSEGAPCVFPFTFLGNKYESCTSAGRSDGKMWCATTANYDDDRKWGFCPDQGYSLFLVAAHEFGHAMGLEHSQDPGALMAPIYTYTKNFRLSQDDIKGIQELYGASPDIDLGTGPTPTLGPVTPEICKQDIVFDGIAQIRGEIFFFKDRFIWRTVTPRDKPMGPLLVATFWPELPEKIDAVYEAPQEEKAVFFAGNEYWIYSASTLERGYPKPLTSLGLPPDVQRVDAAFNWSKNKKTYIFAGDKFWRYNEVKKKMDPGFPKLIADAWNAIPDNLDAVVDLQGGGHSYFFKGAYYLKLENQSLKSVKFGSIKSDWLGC
# Protocol: as §2
structure (smiles),measurement,setting,value
"C[S+](C)[O-] [DMSO, dimethyl sulphoxide]","Cell metabolism (SDH production, MTT assay)",MDPC-23 cells [1]; 0.05 mM DMSO,2.343 (2.287-2.387) ab
same,"Cell metabolism (SDH production, MTT assay)",MDPC-23 cells [1]; 0.1 mM DMSO,2.468 (2.359-2.557) a
same,"Cell metabolism (SDH production, MTT assay)",MDPC-23 cells [1]; 0.3 mM DMSO,2.484 (2.399-2.520) a
same,"Cell metabolism (SDH production, MTT assay)",MDPC-23 cells [1]; 0.5 mM DMSO,2.478 (2.294-2.542) ab
same,"Cell metabolism (SDH production, MTT assay)",MDPC-23 cells [1]; 1.0 mM DMSO,2.410 (2.119-2.501) ab
same,Production of SDH enzyme vs control,"MDPC-23 cells [1]; 0.05-1.0 mM DMSO, not concentration-dependent",Slight increase
same,Effect on gelatinase activity (disappearance of bands),"[2]; 0.1-20% DMSO in incubation buffer, recombinant human MMP-2 and MMP-9",inhibitory activity
same,MMP inhibition,"[2]; 5% DMSO (FIG. 12, FIG. 13)",up to 75.3%
same,MMP inhibition,"[2]; 20% DMSO (FIG. 12, FIG. 13)",up to 94.7%
same,"Cell number (viable cells, Trypan Blue)",MDPC-23 cells [3]; 0.05 mM DMSO,3.7 (0.9) a
same,"Cell number (viable cells, Trypan Blue)",MDPC-23 cells [3]; 0.1 mM DMSO,4.3 (1.1) a
same,"Cell number (viable cells, Trypan Blue)",MDPC-23 cells [3]; 0.3 mM DMSO,4.1 (1.4) a
same,"Cell number (viable cells, Trypan Blue)",MDPC-23 cells [3]; 0.5 mM DMSO,4.1 (0.9) a
same,"Cell number (viable cells, Trypan Blue)",MDPC-23 cells [3]; 1.0 mM DMSO,4.1 (1.3) a
same,Number of cells vs control,"MDPC-23 cells [3]; 0.05-1.0 mM DMSO, p>0.05",no differences
same,Cytotoxicity to odontoblast-like cells,"MDPC-23 cells [3]; direct contact, 0.05-1.0 mM DMSO",not cytotoxic or cytophatic
same,HYP release into the medium,"[4]; 0.001% DMSO in medium, 4-week incubation",significantly decreased
same,HYP release into the medium,"[4]; 0.01% DMSO in medium, 4-week incubation",significantly decreased
same,HYP release into the medium,[4]; 15 minute immersion in 5% DMSO prior the 4-week incubation,significantly decreased
same,Demineralized dentin collagen degradation by matrix enzymes,[4]; DMSO (FIG. 14),significant decrease in collagen degradation
same,"% Cell Death (necrosis, flow cytometry)",MDPC-23 cells [5]; 0.05 mM DMSO,1.2 (0.8-1.6) a %
same,"% Cell Death (necrosis, flow cytometry)",MDPC-23 cells [5]; 0.1 mM DMSO,1.3 (0.9-1.6) a %
same,"% Cell Death (necrosis, flow cytometry)",MDPC-23 cells [5]; 0.3 mM DMSO,1.2 (0.6-1.6) a %
same,"% Cell Death (necrosis, flow cytometry)",MDPC-23 cells [5]; 0.5 mM DMSO,1.3 (0.8-1.5) a %
same,"% Cell Death (necrosis, flow cytometry)",MDPC-23 cells [5]; 1.0 mM DMSO,1.3 (0.8-1.6) a %
same,Cell death by necrosis vs control,"MDPC-23 cells [5]; 0.05-1.0 mM DMSO, p>0.05",no differences
same,Inhibition of MMP-2 gelatinolytic activity,MMP-2 [6],theoretical maximum inhibition
same,Inhibition of MMP-2 gelatinolytic activity,MMP-2 [7],statistically significant inhibition
